ChEMBL document CHEMBL1151601, “Probing the binding site of the penicillin side-chain based on the tipper-strominger hypothesis” (1993)
In brackets after ≈: the same amount, converted by molar mass.

Experiments:
Staphylococcus aureus [1] = test: Concentration required for 90 percent inhibition of [14C]- pen-G binding to Staphylococcus aureus ATCC 25293 PBP2 80 KDa
Staphylococcus aureus [2] = test: Concentration required for 90 percent inhibition of [14C]- pen-G binding to Staphylococcus aureus ATCC 25293 PBP3 75 KDa
Escherichia coli [3] = test: Concentration required for 90 percent inhibition of [14C]- pen-G binding to Escherichia coli DCO PBP5/6 40 KDa
Escherichia coli [4] = test: Tested for minimum inhibitory concentration against Escherichia coli DC2; assay type: functional
Staphylococcus aureus [5] = test: Concentration required for 90 percent inhibition of [14C]- pen-G binding to Staphylococcus aureus ATCC 25293 PBP1 87 KDa
Escherichia coli [6] = test: Concentration required for 90 percent inhibition of [14C]- pen-G binding to Escherichia coli DCO PBP2 66 KDa
Escherichia coli [7] = test: Concentration required for 90 percent inhibition of [14C]- pen-G binding to Escherichia coli DCO PBP1a 90 KDa
Escherichia coli [8] = test: Concentration required for 90 percent inhibition of [14C]- pen-G binding to Escherichia coli DCO PBP3 60 KDa
Escherichia coli [9] = test: Concentration required for 90 percent inhibition of [14C]- pen-G binding to Escherichia coli DCO PBP4 49 KDa
Escherichia coli [10] = test: Concentration required for 90 percent inhibition of [14C]- pen-G binding to Escherichia coli DCO PBP1b 90 KDa
Staphylococcus aureus [11] = test: Concentration required for 90 percent inhibition of [14C]- pen-G binding to Staphylococcus aureus ATCC 25293 PBP4 41 KDa
Staphylococcus aureus [12] = test: Tested for minimum inhibitory concentration against Staphylococcus aureus ATCC 25293; assay type: functional
Escherichia coli [13] = test: Tested for minimum inhibitory concentration against Escherichia coli DCO; assay type: functional
Escherichia coli [14] = test: Concentration required for 90 percent inhibition of [14C]- pen-G binding to Escherichia coli Penicillin-binding protein (DCO PBP1a 90 KDa)
Escherichia coli [15] = test: Concentration required for 90 percent inhibition of [14C]- pen-G binding to Escherichia coli Penicillin-binding protein (DCO PBP2 66 KDa)
Escherichia coli [16] = test: Concentration required for 90 percent inhibition of [14C]- pen-G binding to Escherichia coli Penicillin-binding protein (DCO PBP5/6 40 KDa)
Escherichia coli [17] = test: Concentration required for 90 percent inhibition of [14C]- pen-G binding to Escherichia coli Penicillin-binding protein (DCO PBP3 60 KDa)
Staphylococcus aureus [18] = test: Concentration required for 90 percent inhibition of [14C]- pen-G binding to Staphylococcus aureus Penicillin-binding protein (ATCC 25293 PBP1 87 KDa)
Staphylococcus aureus [19] = test: Concentration required for 90 percent inhibition of [14C]- pen-G binding to Staphylococcus aureus Penicillin-binding protein (ATCC 25293 PBP2 80 KDa)
Escherichia coli [20] = test: Concentration required for 90 percent inhibition of [14C]- pen-G binding to Escherichia coli Penicillin-binding protein (DCO PBP4 49 KDa)
Escherichia coli [21] = test: Concentration required for 90 percent inhibition of [14C]- pen-G binding to Escherichia coli Penicillin-binding protein (DCO PBP1b 90 KDa)

| SMILES | Concentration (Staphylococcus aureus [1]) | Concentration (Staphylococcus aureus [2]) | Concentration (Escherichia coli [3]) | MIC (Escherichia coli [4]) | Concentration (Staphylococcus aureus [5]) | Concentration (Escherichia coli [6]) | Concentration (Escherichia coli [7]) | Concentration (Escherichia coli [8]) | Concentration (Escherichia coli [9]) | Concentration (Escherichia coli [10]) | Concentration (Staphylococcus aureus [11]) | MIC (Staphylococcus aureus [12]) | MIC (Escherichia coli [13]) | further results |
| --- | --- | --- | --- | --- | --- | --- | --- | --- | --- | --- | --- | --- | --- | --- |
| CC1(C)S[C@@H]2[C@H](NC(=O)[C@H](N)c3ccccc3)C(=O)N2[C@H]1C(=O)O [AMPICILLIN] | 2 µg/mL | 0.1 µg/mL | 100 µg/mL | 0.4 µg/mL (≈ 1.14 µM) | 0.1 µg/mL | 0.5 µg/mL | 2 µg/mL | 2 µg/mL | 0.1 µg/mL | 10 µg/mL | > 100 µg/mL | 1.6 µg/mL (≈ 4.58 µM) |  |  |
| CC(=O)NCCCC[C@H](C(=O)N[C@@H]1C(=O)N2[C@@H]1SC(C)(C)[C@@H]2C(=O)O)c1ccccc1 | 100 µg/mL | > 100 µg/mL | > 100 µg/mL | > 100 µg/mL | 30 µg/mL | 30 µg/mL | 30 µg/mL | 30 µg/mL | 30 µg/mL | 100 µg/mL |  | 20 µg/mL (≈ 44.7 µM) | > 100 µg/mL |  |
| CC(=O)NCCCC[C@@H](C(=O)N[C@@H]1C(=O)N2[C@@H]1SC(C)(C)[C@@H]2C(=O)O)c1ccccc1 | > 100 µg/mL | > 100 µg/mL | > 100 µg/mL | > 20 µg/mL | 100 µg/mL | > 100 µg/mL | > 100 µg/mL | 100 µg/mL | 100 µg/mL | > 100 µg/mL |  | > 20 µg/mL | > 100 µg/mL |  |
| CC1(C)S[C@@H]2[C@H](NC(=O)[C@@H](CCCCN)c3ccccc3)C(=O)N2[C@H]1C(=O)O | 30 µg/mL | > 100 µg/mL | > 100 µg/mL | 5 µg/mL (≈ 12.3 µM) | 30 µg/mL | 30 µg/mL | 10 µg/mL | 100 µg/mL | 30 µg/mL | 100 µg/mL |  | 5 µg/mL (≈ 12.3 µM) | 100 µg/mL (≈ 247 µM) |  |
| CC1(C)S[C@@H]2[C@H](NC(=O)Cc3ccccc3)C(=O)N2[C@H]1C(=O)O [PENICILLIN G] | 0.1 µg/mL | 0.1 µg/mL | > 100 µg/mL | 12 µg/mL (≈ 35.9 µM) | 0.1 µg/mL | 10 µg/mL | > 100 µg/mL | 2 µg/mL | 2 µg/mL | 10 µg/mL | 10 µg/mL | < 0.05 µg/mL | 50 µg/mL (≈ 150 µM) |  |
| CC1(C)S[C@@H]2[C@H](NC(=O)[C@H](CCCCN)c3ccccc3)C(=O)N2[C@H]1C(=O)O | 100 µg/mL | > 100 µg/mL | > 100 µg/mL | > 100 µg/mL | 100 µg/mL | 30 µg/mL | 30 µg/mL | 10 µg/mL | 10 µg/mL | 100 µg/mL |  | > 100 µg/mL | > 100 µg/mL |  |
| CC1(C)SC2C(NC(=O)Cc3ccccc3)C(=O)N2[C@H]1C(=O)O (stereo partly drawn) |  |  |  |  |  |  |  |  |  |  | > 100 µg/mL | > 20 µg/mL |  | Concentration (Escherichia coli [14]): > 100 µg/mL; Concentration (Escherichia coli [15]): > 100 µg/mL; Concentration (Escherichia coli [16]): > 100 µg/mL; Concentration (Escherichia coli [17]): 100 µg/mL; Concentration (Staphylococcus aureus [18]): 2 µg/mL; Concentration (Staphylococcus aureus [19]): > 100 µg/mL; Concentration (Escherichia coli [20]): 100 µg/mL; Concentration (Escherichia coli [21]): > 100 µg/mL |
